The values that follow come from PubChem BioAssay (NCI).

Among the test systems are BT-549 breast; COLO 205 colon; HOP-62 NSCLC; K-562 leukemia; MCF7 breast; OVCAR-3 ovarian; SF-539 CNS; SK-MEL-5 melanoma; SNB-75 CNS; SW-620 colon.
Test in all cases: NCI tumour cell line growth inhibition, 48 h

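Exposure lasted 48 hours, with cells grown in 96-well plates and compounds tested at five concentrations. GI50 = concentration required for 50% inhibition of growth. TGI marks complete inhibition of growth.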

As for `CN(C)c1ccc(/C=C2\N=C(c3ccccc3)N(c3cc(C(F)(F)F)ccc3Cl)C2=O)cc1`, the GI50 is greater than 100 µM with BT-549 breast; greater than 100 µM in the experiment with COLO 205 colon; greater than 100 µM in the experiment on HOP-62 NSCLC; greater than 100 µM with K-562 leukemia; 99.8 µM with MCF7 breast; greater than 78.5 µM in the experiment on OVCAR-3 ovarian. The GI50 in the experiment with SF-539 CNS, in the experiment with SK-MEL-5 melanoma, in the experiment on SNB-75 CNS and in the experiment on SW-620 colon was greater than 100 µM in each case. In addition, the TGI in the experiment with BT-549 breast, in the experiment on COLO 205 colon, in the experiment with HOP-62 NSCLC, with K-562 leukemia, in the experiment with MCF7 breast and in the experiment on OVCAR-3 ovarian was greater than 100 µM each time. In addition, the TGI with SF-539 CNS, in the experiment with SK-MEL-5 melanoma, in the experiment on SNB-75 CNS and in the experiment with SW-620 colon was greater than 100 µM throughout.
As for `CN(C)c1nc(=NCc2ccco2)ss1`, the TGI was 38.4 µM with BT-549 breast; greater than 68.5 µM with COLO 205 colon; 62.8 µM with HOP-62 NSCLC; greater than 90.8 µM in the experiment with K-562 leukemia; 33.1 µM in the experiment with MCF7 breast; 63 µM in the experiment on OVCAR-3 ovarian. Besides, the TGI was 19.8 µM in the experiment with SF-539 CNS, greater than 100 µM with SK-MEL-5 melanoma, 53.9 µM in the experiment on SNB-75 CNS and 61.9 µM with SW-620 colon.
For `O=C(Nc1ccc(-n2ccc3c(NC(=O)c4ccccc4)ncnc32)cc1)c1cccc(C(F)(F)F)c1`, the GI50 in the experiment with BT-549 breast was 9.57 µM; in the experiment with COLO 205 colon, 4.1 µM; in the experiment on HOP-62 NSCLC, 10.9 µM; in the experiment on K-562 leukemia it was 0.13 µM; in the experiment on MCF7 breast, 1.39 µM; in the experiment on OVCAR-3 ovarian it was 4.37 µM. Moreover, the GI50 in the experiment on SF-539 CNS is 1.11 µM; with SK-MEL-5 melanoma, 0.232 µM; in the experiment with SNB-75 CNS, 3.58 µM; in the experiment on SW-620 colon, 1.05 µM. In addition, the TGI in the experiment on BT-549 breast is 30 µM; with COLO 205 colon, 20.9 µM; with HOP-62 NSCLC it was 24.4 µM; in the experiment with K-562 leukemia, greater than 53.8 µM; in the experiment on MCF7 breast, 18.5 µM; with OVCAR-3 ovarian, 20.9 µM. Also, the TGI is greater than 93.3 µM in the experiment with SF-539 CNS, 15.8 µM in the experiment on SK-MEL-5 melanoma, 22.3 µM with SNB-75 CNS and 18.8 µM in the experiment on SW-620 colon.
As for `C=C1C(=O)O[C@H]2[C@H]1CC/C(COC(=O)NCc1ccc(OC)cc1)=C\CC[C@@]1(C)O[C@@H]21`, the GI50 in the experiment with BT-549 breast was 0.696 µM; with COLO 205 colon it was 0.656 µM; with HOP-62 NSCLC, 7.98 µM; with K-562 leukemia, 0.897 µM; in the experiment with MCF7 breast, 1.31 µM; with OVCAR-3 ovarian, 0.595 µM. Further, the GI50 in the experiment on SF-539 CNS was 0.973 µM; in the experiment with SK-MEL-5 melanoma, 2.85 µM; in the experiment with SNB-75 CNS it was 1 µM; with SW-620 colon, 0.635 µM. In addition, the TGI in the experiment on BT-549 breast is 2.07 µM; in the experiment on COLO 205 colon it was 1.55 µM; with HOP-62 NSCLC it was 24.1 µM; in the experiment with K-562 leukemia, 9.08 µM; with MCF7 breast, 5.45 µM; in the experiment with OVCAR-3 ovarian it was 1.53 µM. Also, the TGI in the experiment on SF-539 CNS was 3.65 µM; in the experiment with SK-MEL-5 melanoma, 17.2 µM; in the experiment on SNB-75 CNS, 15.3 µM; in the experiment with SW-620 colon it was 1.55 µM.
As to `O=[N+]([O-])c1nccn1CC(O)CN1CCCCC1` (stereo unspecified), the TGI in the experiment with BT-549 breast, in the experiment on COLO 205 colon, with HOP-62 NSCLC, with K-562 leukemia, in the experiment on MCF7 breast and in the experiment with OVCAR-3 ovarian was greater than 100 µM each time. Also, the TGI in the experiment with SF-539 CNS, in the experiment on SK-MEL-5 melanoma, in the experiment with SNB-75 CNS and in the experiment on SW-620 colon was greater than 100 µM each time.
As for `O=C(/C=C/c1ccc(O)c(O)c1)NCc1c[nH]c2ccccc12`, the GI50 in the experiment on BT-549 breast is 78.5 µM; with COLO 205 colon, 49 µM; in the experiment on HOP-62 NSCLC, 44.7 µM; in the experiment with K-562 leukemia, 68.1 µM; with MCF7 breast, 70.3 µM; in the experiment on OVCAR-3 ovarian it was 28.4 µM. The GI50 was 38.9 µM in the experiment with SF-539 CNS, 32.9 µM with SK-MEL-5 melanoma, 82.4 µM in the experiment on SNB-75 CNS and 58.6 µM in the experiment with SW-620 colon. In addition, the TGI in the experiment on BT-549 breast, in the experiment on COLO 205 colon, in the experiment on HOP-62 NSCLC, in the experiment on K-562 leukemia, in the experiment with MCF7 breast and with OVCAR-3 ovarian was greater than 100 µM each time. In addition, the TGI in the experiment on SF-539 CNS, in the experiment with SK-MEL-5 melanoma, in the experiment on SNB-75 CNS and with SW-620 colon was greater than 100 µM in each case.
Take `CC[C@@]1(OC(=O)CN)C(=O)OCc2c1cc1n(c2=O)Cc2c-1nc1cc3c(cc1c2CCl)OCO3`: the GI50 was 0.0918 µM in the experiment with BT-549 breast; 0.761 µM with COLO 205 colon; less than 0.01 µM with HOP-62 NSCLC; 0.0642 µM in the experiment on K-562 leukemia; less than 0.01 µM in the experiment on MCF7 breast; 0.372 µM with OVCAR-3 ovarian. The GI50 is less than 0.01 µM with SF-539 CNS, less than 0.0118 µM in the experiment on SK-MEL-5 melanoma, less than 0.0244 µM in the experiment with SNB-75 CNS and less than 0.0196 µM in the experiment with SW-620 colon. Also, the TGI is 2.54 µM with BT-549 breast; 3.1 µM with COLO 205 colon; 12.6 µM in the experiment on MCF7 breast; 4.1 µM in the experiment with OVCAR-3 ovarian; less than 0.0318 µM in the experiment on SF-539 CNS; 0.5 µM in the experiment with SK-MEL-5 melanoma. This compound displayed a TGI with SW-620 colon of 32.6 µM.
As for `Cn1c(=O)c2[nH]c(SCCN3CCOCC3)nc2n(C)c1=S`, the TGI with BT-549 breast, in the experiment on COLO 205 colon, in the experiment on HOP-62 NSCLC, in the experiment on K-562 leukemia, with MCF7 breast and in the experiment with OVCAR-3 ovarian was greater than 100 µM in each case. Further, the TGI with SF-539 CNS, in the experiment on SK-MEL-5 melanoma, in the experiment on SNB-75 CNS and in the experiment on SW-620 colon was greater than 100 µM throughout.
As for `CN1CCN(Cc2ccc(NC(=O)c3cncc(C#Cc4cnc(N)cc4C#N)c3)cc2C(F)(F)F)CC1`, the GI50 in the experiment on BT-549 breast was 4.25 µM; in the experiment on COLO 205 colon, 1.39 µM; with HOP-62 NSCLC it was 3.33 µM; in the experiment on K-562 leukemia it was 0.034 µM; in the experiment with MCF7 breast, 3.64 µM; in the experiment on OVCAR-3 ovarian it was 4.88 µM. For the same compound, the GI50 with SF-539 CNS is 0.959 µM; in the experiment on SK-MEL-5 melanoma, 2.29 µM; in the experiment on SNB-75 CNS it was 5.92 µM; in the experiment with SW-620 colon, 2.92 µM. Moreover, the TGI in the experiment with BT-549 breast worked out at 16.8 µM; in the experiment on COLO 205 colon, 12.8 µM; in the experiment with HOP-62 NSCLC it was 13.1 µM; in the experiment on K-562 leukemia, 12.1 µM; in the experiment with MCF7 breast, 16.2 µM; in the experiment with OVCAR-3 ovarian, 20.4 µM. In addition, the TGI with SF-539 CNS turned out to be 3.55 µM; in the experiment on SK-MEL-5 melanoma, 7.11 µM; in the experiment on SNB-75 CNS it was 19.8 µM; with SW-620 colon, 11.4 µM.
`CCC(C)Oc1nc2c(c(=O)n(C)c(=O)n2C)n1C` (stereo unspecified): the GI50 in the experiment on BT-549 breast, in the experiment on COLO 205 colon, in the experiment on HOP-62 NSCLC, in the experiment with K-562 leukemia, with MCF7 breast and with OVCAR-3 ovarian was greater than 100 µM each time. Moreover, the GI50 in the experiment with SF-539 CNS, in the experiment on SK-MEL-5 melanoma, in the experiment with SNB-75 CNS and in the experiment with SW-620 colon was greater than 100 µM each time. Further, the TGI in the experiment with BT-549 breast, in the experiment on COLO 205 colon, with HOP-62 NSCLC, in the experiment with K-562 leukemia, in the experiment on MCF7 breast and in the experiment on OVCAR-3 ovarian was greater than 100 µM in each case. Moreover, the TGI in the experiment on SF-539 CNS, in the experiment on SK-MEL-5 melanoma, in the experiment with SNB-75 CNS and in the experiment on SW-620 colon was greater than 100 µM in each case.
With `CN(Cc1ccc(C(F)(F)F)cc1)CC(O)C(=O)Nc1ccc(Cl)cc1` (stereo unspecified), the GI50 was 1.46 µM with BT-549 breast; 1.86 µM in the experiment on COLO 205 colon; 1.7 µM in the experiment on HOP-62 NSCLC; 1.18 µM in the experiment on K-562 leukemia; 1.04 µM in the experiment on MCF7 breast; 1.55 µM in the experiment with OVCAR-3 ovarian. For the same compound, the GI50 in the experiment with SF-539 CNS is 1.73 µM; in the experiment on SK-MEL-5 melanoma, 1.67 µM; with SNB-75 CNS, 1.31 µM; in the experiment on SW-620 colon, 1.54 µM. The TGI in the experiment on BT-549 breast was found to be 2.88 µM; in the experiment on COLO 205 colon it was 3.46 µM; in the experiment with HOP-62 NSCLC, 3.18 µM; in the experiment with K-562 leukemia, 2.78 µM; in the experiment with MCF7 breast it was 2.36 µM; in the experiment on OVCAR-3 ovarian, 3.03 µM. Moreover, the TGI in the experiment on SF-539 CNS worked out at 3.24 µM; in the experiment with SK-MEL-5 melanoma, 3.11 µM; in the experiment with SNB-75 CNS it was 2.62 µM; in the experiment on SW-620 colon, 3.1 µM.
Turning to `COC(=O)C12CC(NC(=O)c3csc([C@@H](C[C@H](C(C)C)N(C)C(=O)[C@@H](NC(=O)[C@H]4CCCCN4C)C4CC4)OC(C)=O)n3)(C1)C2`, the GI50 with BT-549 breast is 0.00766 µM; in the experiment with COLO 205 colon, 0.00972 µM; in the experiment with HOP-62 NSCLC it was 0.0347 µM; with K-562 leukemia, 0.00549 µM; in the experiment on MCF7 breast, 0.00813 µM; in the experiment on OVCAR-3 ovarian, 0.0059 µM. Moreover, the GI50 was 0.00853 µM in the experiment with SF-539 CNS, 0.023 µM with SK-MEL-5 melanoma, 0.00548 µM in the experiment with SNB-75 CNS and 0.0114 µM with SW-620 colon. Further, the TGI with BT-549 breast is 2.72 µM; in the experiment on COLO 205 colon, 0.201 µM; with HOP-62 NSCLC, greater than 16.7 µM; in the experiment on K-562 leukemia, greater than 16.7 µM; in the experiment with MCF7 breast, greater than 16.7 µM; in the experiment on SF-539 CNS, 0.0613 µM. Also, the TGI is 0.449 µM in the experiment on SK-MEL-5 melanoma, greater than 16.7 µM with SNB-75 CNS and greater than 16.7 µM in the experiment with SW-620 colon.
With `C[Si](C)(c1ccc(C(=O)O)cc1)c1ccc(C(=O)O)cc1`, the TGI with BT-549 breast, with COLO 205 colon, with HOP-62 NSCLC, with K-562 leukemia, in the experiment with MCF7 breast and in the experiment with OVCAR-3 ovarian was greater than 100 µM each time. Further, the TGI in the experiment with SF-539 CNS, with SK-MEL-5 melanoma, in the experiment on SNB-75 CNS and in the experiment on SW-620 colon was greater than 100 µM each time.
